Usually IC50 stands for the concentration that gives 50% inhibition. Usually inhibition stands for the percentage by which the read-out fell short of the control. A high value points to a response far below the control.

Two molecules from article PMC8388879 (Antioxidants, 2021) can be followed below.

Assay [1] addresses mushroom TYR (tyrosinase). As to the kind of experiment: dopachrome formation from L-DOPA (A475), commercial mushroom TYR; IC50 […] at […] L-DOPA, […] at […]; also traps dopaquinone. Type of assay: biochemical.
A further assay deals with T1, human TYR (tyrosinase) (Homo sapiens, UniProt P14679).
T1 sequence (P14679 19-529): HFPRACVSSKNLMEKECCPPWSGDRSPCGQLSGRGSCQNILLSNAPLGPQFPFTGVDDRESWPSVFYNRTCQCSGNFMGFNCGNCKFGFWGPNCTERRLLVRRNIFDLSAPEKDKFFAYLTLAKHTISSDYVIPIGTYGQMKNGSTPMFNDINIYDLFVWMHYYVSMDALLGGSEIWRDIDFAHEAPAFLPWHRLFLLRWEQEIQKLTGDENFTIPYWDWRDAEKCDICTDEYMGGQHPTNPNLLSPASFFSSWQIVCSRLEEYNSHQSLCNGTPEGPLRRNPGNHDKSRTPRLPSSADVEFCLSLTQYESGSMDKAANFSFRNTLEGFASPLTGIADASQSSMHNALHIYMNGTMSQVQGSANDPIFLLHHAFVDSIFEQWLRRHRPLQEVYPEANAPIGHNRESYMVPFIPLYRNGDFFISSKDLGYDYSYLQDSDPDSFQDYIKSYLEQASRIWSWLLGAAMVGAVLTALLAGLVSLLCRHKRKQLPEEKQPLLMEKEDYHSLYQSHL
As to the kind of experiment: dopachrome formation (A475) in lysate of HEK293 cells expressing human TYR; […] inhibition at […] (dopaquinone trapping may contribute). Type of assay: cell-based.

Consider `NC(=O)[C@@H](N)CS` [C-NH2, L-Cysteinamide], for which the 50% inhibitory concentration (IC50) in assay [1] is 115 µM. `N[C@@H](CS)C(=O)O` [L-cysteine] had an inhibition at 200 µM on human TYR (tyrosinase) of 70%.
